Values quoted from earlier work in patent US20040072765A1, “Cardiovascular and bone treatment using isoflavones” (Novogen Research Pty Ltd., priority 1999, published 2004).

Experiments:
[1] = low doses, rats
[2] = men and women

SMILES: O=c1c(-c2ccc(O)cc2)coc2cc(O)cc(O)c12 [Genistein, genistein]
- cortical and trabecular bone density [1]: increased

SMILES: CCOC(=O)C(C)(C)Oc1ccc(Cl)cc1 [clofibrinate]
- increase in HDL levels [2]: about 10%
